pIC50: −log10 of the molar value.
Each molecule was assayed against Polθ theta (1-899) (hPolQ) (Homo sapiens (Human), UniProt O75417) (assay: Biological Assay 1: Polθ ATPase activity, NADH oxidation-coupled enzymatic assay (10 nM enzyme, 30 min)). Settings: Polθ (1-899) 10 nM, 100 μM ATP, 300 nM dT50 ssDNA; Examples 1 to 268; read-out: ATPase NADH coupling:Standard Screening:hPolQ IC50.
Format: biochemical
Experimental: The ability of the compounds of Formula (I), (II), (III), (IV), or Table 1 (Examples 1 to Example 268) to inhibit ATPase activity of Polθ theta (1-899) was determined using the assay described below.
Polθ Theta ATPase activity was determined by measuring the rate of ATP turn over in a NADH oxidation-coupled enzymatic assay. 10-point dilution series of compounds were used in a 384 well format for the inhibition assays. Polθ theta (1-899) (10 nM) in assay buffer (20 mM Tris HCl (pH 7.80), 80 mM KCl, 10 mM MgCl2, 1 mM DTT, 0.01% BSA, 0.01% Tween, 5% glycerol) was transferred to the test wells (20 μL), except the low control wells (20 μL of assay buffer was added to the low control wells). The plate was then incubated at room temperature for 15 min. An equal volume (20 μL) of 100 μM ATP, 300 nM dT50 (single-stranded DNA (ssDNA) containing 50 thymine bases), 300 μM NADH, 6 mM PEP, 10 U/mL lactate dehydrogenase and U/mL pyruvate kinase in assay buffer was added to all the test wells. The plate was then centrifuged at 1000 rpm for 1 min. The reaction was monitored for 30 min by measuring absorbance (λ=340 nm) in a Tecan Spark multimode plate reader every minute. The high control (DMSO with enzyme) with low absorbance intensity represents no inhibition of ATPase reaction while the low control (DMSO with buffer) with high absorbance intensity represents full inhibition of ATPase activity. Slope of the reaction progress curves were used to calculate the rate of ATP hydrolysis. The rates were used to determine the percent inhibition using a four-parameter inhibition model to generate IC50, Hill slope and max inhibition.

Sequence of Polθ theta (1-899) (hPolQ) (O75417 1-899): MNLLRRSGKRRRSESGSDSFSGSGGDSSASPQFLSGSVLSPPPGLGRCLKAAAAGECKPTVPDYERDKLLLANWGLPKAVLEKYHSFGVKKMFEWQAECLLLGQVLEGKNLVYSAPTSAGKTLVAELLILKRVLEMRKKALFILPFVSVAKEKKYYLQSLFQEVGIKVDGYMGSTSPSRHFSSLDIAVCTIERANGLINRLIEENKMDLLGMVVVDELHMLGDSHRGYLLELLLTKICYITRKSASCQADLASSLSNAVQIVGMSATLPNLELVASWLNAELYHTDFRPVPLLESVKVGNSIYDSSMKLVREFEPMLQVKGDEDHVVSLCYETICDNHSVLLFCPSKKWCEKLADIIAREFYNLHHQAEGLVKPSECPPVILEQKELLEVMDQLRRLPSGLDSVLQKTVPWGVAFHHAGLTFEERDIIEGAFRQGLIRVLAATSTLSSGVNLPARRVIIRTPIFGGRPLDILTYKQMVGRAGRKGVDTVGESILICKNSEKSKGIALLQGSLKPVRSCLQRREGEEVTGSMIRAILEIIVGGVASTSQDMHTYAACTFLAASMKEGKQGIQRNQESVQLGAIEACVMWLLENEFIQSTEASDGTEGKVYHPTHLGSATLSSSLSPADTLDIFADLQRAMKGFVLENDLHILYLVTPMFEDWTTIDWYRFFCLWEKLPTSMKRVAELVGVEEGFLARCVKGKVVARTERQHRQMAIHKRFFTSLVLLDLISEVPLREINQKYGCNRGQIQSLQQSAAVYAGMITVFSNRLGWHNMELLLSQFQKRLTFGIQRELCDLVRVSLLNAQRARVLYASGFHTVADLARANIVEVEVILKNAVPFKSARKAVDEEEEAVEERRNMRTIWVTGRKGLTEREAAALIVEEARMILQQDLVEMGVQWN

| SMILES | pIC50 |
| --- | --- |
| CN=[S@@](C)(=O)c1ccc(COc2nnc(NC(=O)c3cnc(C)cc3-c3cc(Cl)ccc3OC)s2)nc1 [Example 152, (S)-4-(5-chloro-2-methoxyphenyl)-N-(5-((5-(N,S-dimethylsulfonimidoyl)pyridin-2-yl)methoxy)-1,3,4-thiadiazol-2-yl)-6-methylnicotinamide] | ≥ 6.70 |
| COc1cccc(F)c1-c1cc(C)ncc1C(=O)Nc1nnc(OCc2cnc([C@@H](C)O)cn2)s1 [Example 111, 4-(2-fluoro-6-methoxyphenyl)-N-(5-((5-((R)-1-hydroxyethyl)pyrazin-2-yl)methoxy)-1,3,4-thiadiazol-2-yl)-6-methylnicotinamide] | ≥ 6.70 |
| COc1cccc(F)c1-c1cc(C)ncc1C(=O)Nc1nnc(OCc2ccc(CC3COC3)cn2)s1 [Example 54, 4-(2-fluoro-6-methoxyphenyl)-6-methyl-N-(5-((5-(oxetan-3-ylmethyl)pyridin-2-yl)methoxy)-1,3,4-thiadiazol-2-yl)nicotinamide] | ≥ 6.70 |
| COc1cnc(Cl)cc1-c1cc(C)ncc1C(=O)Nc1nnc(OC[C@H]2CC[C@H](OC(F)F)CC2)s1 [Example 159, 2′-chloro-N-(5-(((1r,4r)-4-(difluoromethoxy)cyclohexyl)methoxy)-1,3,4-thiadiazol-2-yl)-5′-methoxy-6-methyl-(4,4′-bipyridine)-3-carboxamide] | ≥ 6.70 |
| COc1c(F)cccc1-c1cc(C)ncc1C(=O)Nc1nnc(OCc2ccc(Cl)cn2)s1 [Example 16, N-(5-((5-chloropyridin-2-yl)methoxy)-1,3,4-thiadiazol-2-yl)-4-(3-fluoro-2-methoxyphenyl)-6-methylnicotinamide] | ≥ 6.70 |
| COc1ccc(Cl)cc1-c1cc(C)ncc1C(=O)Nc1nnc(OCc2ccc(C(C)(C)O)cn2)s1 [Example 96, 4-(5-chloro-2-methoxyphenyl)-N-(5-((5-(2-hydroxypropan-2-yl)pyridin-2-yl)methoxy)-1,3,4-thiadiazol-2-yl)-6-methylnicotinamide] | ≥ 6.70 |
| COc1cnc(C2CC2)cc1-c1cc(C)ncc1C(=O)Nc1nnc(OCc2ccc(C(C)(C)O)cn2)s1 [Example 105, 2′-cyclopropyl-N-(5-((5-(2-hydroxypropan-2-yl)pyridin-2-yl)methoxy)-1,3,4-thiadiazol-2-yl)-5′-methoxy-6-methyl-[4,4′-bipyridine]-3-carboxamide] | ≥ 6.70 |
| COc1cccc(F)c1-c1cc(C)ncc1C(=O)Nc1nnc(OCc2ccc([S@](C)(=N)=O)cc2)s1 [Example 114, 4-(2-fluoro-6-methoxyphenyl)-6-methyl-N-(5-((4-((R)—S-methylsulfonimidoyl)benzyl)oxy)-1,3,4-thiadiazol-2-yl)nicotinamide] | ≥ 6.70 |
| COc1cnc(Cl)cc1-c1cc(C)ncc1C(=O)Nc1nnc(OC[C@H]2CCO[C@@H]2C)s1 (single isomer, unassigned) [Example 182] | ≥ 6.70 |
| COc1cccc(COc2nnc(NC(=O)c3cnc(C)cc3-c3c(F)cccc3OC)s2)n1 [Example 91, 4-(2-fluoro-6-methoxyphenyl)-N-(5-((6-methoxypyridin-2-yl)methoxy)-1,3,4-thiadiazol-2-yl)-6-methylpyridine-3-carboxamide] | ≥ 6.70 |
| COc1cnc(Cl)cc1-c1cc(C)ncc1C(=O)Nc1nnc(OCC2COC2)s1 [Example 164, 2′-chloro-5′-methoxy-6-methyl-N-(5-(oxetan-3-ylmethoxy)-1,3,4-thiadiazol-2-yl)-(4,4′-bipyridine)-3-carboxamide] | ≥ 6.70 |
| COc1cccc(F)c1-c1cc(C)ncc1C(=O)Nc1nnc(OCc2ccc(C(C)(C)O)cn2)s1 [Example 33, 4-(2-fluoro-6-methoxyphenyl)-N-(5-((5-(2-hydroxypropan-2-yl)pyridin-2-yl)methoxy)-1,3,4-thiadiazol-2-yl)-6-methylnicotinamide] | ≥ 6.70 |
| Cc1cc(-c2c(F)cccc2OC(F)F)c(C(=O)Nc2nnc(OCc3ccc(C(C)(C)O)cn3)s2)cn1 [Example 50, 4-(2-(difluoromethoxy)-6-fluorophenyl)-N-(5-((5-(2-hydroxypropan-2-yl)pyridin-2-yl)methoxy)-1,3,4-thiadiazol-2-yl)-6-methylnicotinamide] | ≥ 6.70 |
| COc1cnc(Cl)cc1-c1cc(C)ncc1C(=O)Nc1nnc(OCC2COC(C)(C)C2)s1 (stereo in doubt) [Example 188, (R)-2′-chloro-N-(5-((5,5-dimethyltetrahydrofuran-3-yl)methoxy)-1,3,4-thiadiazol-2-yl)-5′-methoxy-6-methyl-(4,4′-bipyridine)-3-carboxamide] | ≥ 6.70 |
| COc1cnc(Cl)cc1-c1cc(C)ncc1C(=O)Nc1nnc(OCc2ccc([C@@H](C)O)cn2)s1 [Example 69, (R)-2′-chloro-N-(5-((5-(1-hydroxyethyl)pyridin-2-yl)methoxy)-1,3,4-thiadiazol-2-yl)-5′-methoxy-6-methyl-(4,4′-bipyridine)-3-carboxamide] | ≥ 6.70 |
| COc1ccc(COc2nnc(NC(=O)c3cnc(C)cc3-c3c(F)cccc3OC(F)F)s2)nc1 [Example 46, 4-(2-(difluoromethoxy)-6-fluorophenyl)-N-(5-((5-methoxypyridin-2-yl)methoxy)-1,3,4-thiadiazol-2-yl)-6-methylnicotinamide] | ≥ 6.70 |
| COc1cnc(C)cc1-c1cc(C)ncc1C(=O)Nc1nnc(OCc2ccc(C(=O)O)cn2)s1 [Example 90, 6-(((5-(5′-methoxy-2′,6-dimethyl-(4,4′-bipyridine)-3-amido)-1,3,4-thiadiazol-2-yl)oxy)methyl)pyridine-3-carboxylic acid] | ≥ 6.70 |

Further lines, results first:

| pIC50 | SMILES |
| --- | --- |
| ≥ 6.70 | COc1cnc(Br)cc1-c1cc(C)ncc1C(=O)Nc1nnc(OC[C@H]2CCOC2)s1 (single isomer, unassigned) [Example 244] |
| ≥ 6.70 | COc1ccccc1-c1cc(C)ncc1C(=O)Nc1nnc(OCc2ccc(CO)cn2)s1 [compound 5, N-(5-((5-(hydroxymethyl)pyridin-2-yl)methoxy)-1,3,4-thiadiazol-2-yl)-4-(2-methoxyphenyl)-6-methylnicotinamide] |
| ≥ 6.70 | COc1cnc(Cl)cc1-c1cc(C)ncc1C(=O)Nc1nnc(OC[C@@]23COC[C@@H]2C3)s1 (single isomer, unassigned) [Example 230] |
| 5.00 to 6.00 | COc1ccccc1-c1cnccc1C(=O)Nc1nnc(OCCC2(C#N)CC2)s1 [Example 192, N-(5-(2-(1-cyanocyclopropyl)ethoxy)-1,3,4-thiadiazol-2-yl)-3-(2-methoxyphenyl)pyridine-4-carboxamide] |
| ≥ 6.70 | COc1cnc(Cl)cc1-c1cc(C)ncc1C(=O)Nc1nnc(OC[C@@H]2CO[C@@H](C)C2)s1 (single isomer, unassigned) [Example 254] |
| ≥ 6.70 | COc1cnc(C)c(F)c1-c1cc(C)ncc1C(=O)Nc1nnc(OCC23CCC(O)(CC2)CC3)s1 [Example 219, 3′-fluoro-N-(5-((4-hydroxybicyclo(2.2.2)octan-1-yl)methoxy)-1,3,4-thiadiazol-2-yl)-5′-methoxy-2′,6-dimethyl-(4,4′-bipyridine)-3-carboxamide] |
| ≥ 6.70 | COc1cnc(Cl)cc1-c1cc(C)ncc1C(=O)Nc1nnc(OC[C@@]2(F)CCOC2)s1 (single isomer, unassigned) [Example 263] |
| ≥ 6.70 | COc1cnc(Cl)c(F)c1-c1cc(C)ncc1C(=O)Nc1nnc(OC[C@@H]2COCCO2)s1 [Example 239, N-(5-(((S)-1,4-dioxan-2-yl)methoxy)-1,3,4-thiadiazol-2-yl)-2′-chloro-3′-fluoro-5′-methoxy-6-methyl-(4,4′-bipyridine)-3-carboxamide] |

Source: US20250325552A1, “SUBSTITUTED THIADIAZOLYL DERIVATIVES AS DNA POLYMERASE THETA INHIBITORS” (IDEAYA Biosciences, Inc., priority 2020, published 2025)
